Format in all cases: in vivo
Test [1] relates to wheat (Triticum aestivum). As to the kind of experiment: Test A postemergence. An excerpt: (§1) Seeds of plant species selected from barnyardgrass (Echinochloa crus-galli), Kochia (Kochia scoparia), ragweed (common ragweed, Ambrosia elatior), ryegrass, Italian (Italian ryegrass, Lolium multiflorum), crabgrass, large (Digitaria sanguinalis), giant foxtail (Setaria faberii), green foxtail (Setaria viridis), morningglory (Ipomoea spp.), pigweed (Amaranthus retroflexus), velvetleaf (Abutilon theophrasti), wheat (Triticum aestivum), and corn (Zea mays) were planted into a blend of loam soil and sand and treated preemergence with a directed soil spray using test chemicals formulated in anon-phytotoxic solvent mixture which included a surfactant.
(§2) At the same time, plants selected from these crop and weed species and also blackgrass (Alopecurus myosuroides), and Galium (catchweed bedstraw, Galium aparine) were planted in pots containing the same blend of loam soil and sand and treated with postemergence applications of test chemicals formulated in the same manner. Plants ranged in height from 2 to 10 cm and were in the one- to two-leaf stage for the postemergence treatment. Treated plants and untreated controls were maintained in a greenhouse for approximately 10 d, after which time all treated plants were compared to untreated controls and visually evaluated for injury. Plant response ratings, summarized in Table A, are based on a 0 to 100 scale where 0 is no effect and 100 is complete control. A dash (-) response means no test result.

For test [2], the system named is Galium (catchweed bedstraw, Galium aparine). As to the kind of experiment: Test A postemergence.
Description: as §1, §2

Test [3] relates to pigweed (Amaranthus retroflexus). As to the kind of experiment: Test A postemergence.
Description: as §1, §2

The subject of test [4] is barnyardgrass (Echinochloa crus-galli). As to the kind of experiment: Test A postemergence.
Description: as §1, §2

For test [5], the system named is blackgrass (Alopecurus myosuroides). As to the kind of experiment: Test A postemergence.
Description: as §1, §2

Test [6] concerns giant foxtail (Setaria faberii). As to the kind of experiment: Test A postemergence.
Description: as §1, §2

Test [7] deals with ragweed (common ragweed, Ambrosia elatior). As to the kind of experiment: Test A postemergence.
Description: as §1, §2

Another test has as its system corn (Zea mays). As to the kind of experiment: Test A postemergence.
Description: as §1, §2

The test system of test [8] is ryegrass, Italian (Italian ryegrass, Lolium multiflorum). As to the kind of experiment: Test A postemergence.
Description: as §1, §2

In test [9] the test system is Kochia (Kochia scoparia). As to the kind of experiment: Test A postemergence.
Description: as §1, §2

In test [10] the test system is pigweed (Amaranthus retroflexus). As to the kind of experiment: Test A preemergence.
Description: as §1, §2

The subject of test [11] is barnyardgrass (Echinochloa crus-galli). As to the kind of experiment: Test A preemergence.
Description: as §1, §2

Test [12] relates to giant foxtail (Setaria faberii). As to the kind of experiment: Test A preemergence.
Description: as §1, §2

Test [13] has as its system ragweed (common ragweed, Ambrosia elatior). As to the kind of experiment: Test A preemergence.
Description: as §1, §2

Test [14] deals with ryegrass, Italian (Italian ryegrass, Lolium multiflorum). As to the kind of experiment: Test A preemergence.
Description: as §1, §2

The test system of test [15] is Kochia (Kochia scoparia). As to the kind of experiment: Test A preemergence.
Description: as §1, §2

The mark [16] stands for this setting: 125 g ai/ha, postemergence, visual rating after approx. 10 d, 0 to 100 scale (0 no effect, 100 complete control).
Where [17] appears, read: Postemergence, 500 g ai/ha, 0 to 100 scale where 0 is no effect and 100 is complete control.
The mark [18] stands for this setting: 125 g ai/ha, Preemergence, visual injury after approximately 10 d, 0 to 100 scale where 0 is no effect and 100 is complete control.
Where [19] appears, read: Preemergence, 500 g ai/ha, visual injury approx. 10 d.

SMILES strings stand for the structures.

In the case of `Cc1cc(F)ccc1NC(=O)C1C(=O)N(C)CC1c1cccc(C(F)(F)F)c1` (stereo not drawn) [Compound 575], the “Plant response rating, Wheat” value in test [1] (setting [16]) worked out at 40; in [1] (setting [17]) it was 70. In addition, the “Plant response rating, Galium” value in [2] (setting [16]) was determined as 50; in test [2] (setting [17]), 70. The “Plant response rating, Pigweed” value amounted to 0 in test [3] (setting [16]), 20 in test [3] (setting [17]) and 0 in [10] (setting [18]). The “Plant response rating, Barnyardgrass” value in [4] (setting [16]), in test [4] (setting [17]) and in test [11] (setting [18]) was 90 throughout. The “Plant response rating, Blackgrass” value in test [5] (setting [16]) was 70; in test [5] (setting [17]) it was 80. The “Plant response rating, Foxtail, Giant” value in test [6] (setting [16]), in [6] (setting [17]) and in test [12] (setting [18]) was 90 each time. The “Plant response rating, Ragweed” value in [7] (setting [16]), in test [7] (setting [17]) and in test [13] (setting [18]) was 0 each time. The results for the “Plant response rating, Corn” value with corn (Zea mays) (setting [16]) and in the test on corn (Zea mays) (setting [17]) were 70 and 80, respectively. Moreover, the entries for the “Plant response rating, Ryegrass, Italian” value in test [8] (setting [16]), in [8] (setting [17]) and in [14] (setting [18]) were 60, 70 and 60, respectively. Further, the “Plant response rating, Kochia” value in the test on Kochia (Kochia scoparia) [9] (setting [16]) turned out to be 0; with Kochia (Kochia scoparia) [9] (setting [17]), 20; with Kochia (Kochia scoparia) [15] (setting [18]), 0. Further, the “Pigweed plant response rating (0 to 100 scale, 0 is no effect, 100 is complete control)” value in [10] (setting [19]) worked out at 40. The “Barnyardgrass plant response rating (0 to 100 scale, 0 is no effect, 100 is complete control)” value in test [11] (setting [19]) is given as 100. In addition, in [12] (setting [19]), the “Foxtail, Giant plant response rating (0 to 100 scale, 0 is no effect, 100 is complete control)” value is reported as 100. In addition, the “Ragweed plant response rating (0 to 100 scale, 0 is no effect, 100 is complete control)” value in test [13] (setting [19]) was 0. For the same compound, in test [14] (setting [19]), the “Ryegrass, Italian plant response rating (0 to 100 scale, 0 is no effect, 100 is complete control)” value is 80. Besides, in the test with Kochia (Kochia scoparia) [15] (setting [19]), the “Kochia plant response rating (0 to 100 scale, 0 is no effect, 100 is complete control)” value was found to be 70.
For the compound `O=C1NC[C@H](c2ccc3sccc3c2)[C@H]1C(=O)Nc1cccc(F)c1F` [Compound 1128], the plant injury at 500 g/ha in test [1] (Triticum aestivum, post-emergence, 240 h, 500 g ai/ha, postemergence, 0 to 100 scale, 0 is no effect, 100 is complete control, read-out: Wheat plant response rating) worked out at 0%; in the test on corn (Zea mays) (Zea mays, post-emergence, 240 h, 500 g ai/ha, postemergence, 0 to 100 scale, 0 is no effect, 100 is complete control, read-out: Corn plant response rating) it was 50%. Moreover, the pest or weed control at 500 g/ha in test [2] (Galium, post-emergence, 240 h, 500 g ai/ha, postemergence, 0 to 100 scale, 0 is no effect, 100 is complete control, read-out: Galium plant response rating) is 70%; in [3] (Amaranthus retroflexus, post-emergence, 240 h, 500 g ai/ha, postemergence, 0 to 100 scale, 0 is no effect, 100 is complete control, read-out: Pigweed plant response rating) it was 0%; in test [4] (Echinochloa crus-galli, post-emergence, 240 h, 500 g ai/ha, postemergence, 0 to 100 scale, 0 is no effect, 100 is complete control, read-out: Barnyardgrass plant response rating) it was 90%; in test [5] (Alopecurus myosuroides, post-emergence, 240 h, 500 g ai/ha, postemergence, 0 to 100 scale, 0 is no effect, 100 is complete control, read-out: Blackgrass plant response rating) it was 50%; in test [6] (Setaria faberi, post-emergence, 240 h, 500 g ai/ha, postemergence, 0 to 100 scale, 0 is no effect, 100 is complete control, read-out: Foxtail, Giant plant response rating), 90%; in test [7] (Ambrosia artemisiifolia, post-emergence, 240 h, 500 g ai/ha, postemergence, 0 to 100 scale, 0 is no effect, 100 is complete control, read-out: Ragweed plant response rating), 50%. Also, the pest or weed control at 500 g/ha in test [8] (Lolium multiflorum, post-emergence, 240 h, 500 g ai/ha, postemergence, 0 to 100 scale, 0 is no effect, 100 is complete control, read-out: Ryegrass, Italian plant response rating) was found to be 30%; with Kochia (Kochia scoparia) [9] (Bassia scoparia, post-emergence, 240 h, 500 g ai/ha, postemergence, 0 to 100 scale, 0 is no effect, 100 is complete control, read-out: Kochia plant response rating), 70%; in test [10] (Amaranthus retroflexus, pre-emergence, 240 h, 500 g ai/ha, preemergence, 0 to 100 scale where 0 is no effect and 100 is complete control, read-out: Pigweed plant response rating), 0%; in test [11] (Echinochloa crus-galli, pre-emergence, 240 h, 500 g ai/ha, preemergence, 0 to 100 scale where 0 is no effect and 100 is complete control, read-out: Barnyardgrass plant response rating), 90%; in test [12] (Setaria faberi, pre-emergence, 240 h, 500 g ai/ha, preemergence, 0 to 100 scale where 0 is no effect and 100 is complete control, read-out: Foxtail, Giant plant response rating) it was 90%; in [13] (Ambrosia artemisiifolia, pre-emergence, 240 h, 500 g ai/ha, preemergence, 0 to 100 scale where 0 is no effect and 100 is complete control, read-out: Ragweed plant response rating) it was 50%. Moreover, the pest or weed control at 500 g/ha in test [14] (Lolium multiflorum, pre-emergence, 240 h, 500 g ai/ha, preemergence, 0 to 100 scale where 0 is no effect and 100 is complete control, read-out: Ryegrass, Italian plant response rating) was 40%; in the test with Kochia (Kochia scoparia) [15] (Bassia scoparia, pre-emergence, 240 h, 500 g ai/ha, preemergence, 0 to 100 scale where 0 is no effect and 100 is complete control, read-out: Kochia plant response rating), 80%.

The values above are taken from patent publication US12077503B2, “Substituted cyclic amides and their use as herbicides” (FMC CORPORATION, priority 2015, dated 2024).
